From patent publication US12291581B2, “Serpin peptides and methods of using the same” (SERPIN PHARMA, LLC, priority 2012, dated 2025)
Entries after “also recorded” stand apart in the source; their conditions may differ.

Columns and labels:
LPS challenged mice = assay: Mouse LPS challenge (sepsis/inflammation) model, serum TNF-alpha by ELISA; assay type: in vivo; conditions: for anti-inflammatory effect when administered to a mouse model of sepsis (FIG. 10): Table B peptides; for TNF-alpha levels in LPS challenged mice, alanine scanned SP16 peptides (FIG. 10B): compared with Dexamethasone positive control
Experimental: FIGS. 10A and B. FIG. 10A presents exemplary peptides that were used to reduce TNF-alpha levels in mice subjected to an LPS challenge. […] The mice were treated with alanine scanned SP16 peptide. […] Based on this alanine screen, and without wishing to be bound by a theory, it appears that the C- and N-terminal amino acids contribute to the anti-inflammatory effect of the SP16 peptide. […] Groups of 3 animals were injected with 0.2 mg/kg peptide and subjected to LPS challenge. Serum TNF-alpha levels were determined by ELISA. Several peptides provided the same level of protection as 1 mg/kg Dexamethasone.
The ability of peptide drugs was tested to for their potential for the reduction of inflammatory cytokines following treatment with purified bacterial lipopolysaccharide (LPS)—a major component of bacterial cell wall of Gram-negative bacteria. A model of inflammation was used wherein mice were injected with LPS, which induced a transient immune response and a surge of serum inflammatory cytokines. The immune response peaks after 90 minutes and subsides after 24 hours. The levels of key serum inflammatory markers were compared between mice treated and untreated with LPS 90 minutes after injection.
We designed 18 different peptides based on the hAAT sequence (Accession #AAB59371), and had these synthesized using conventional FMOC chemistry. To assess in vivo anti-inflammatory and therapeutic potential, the peptides were tested in a mouse lipopolysaccharide (LPS) challenge model with serum TNFα levels as readout. Using dexamethasone as reference, groups of 3 animals were IP injected with 0.2 mg/kg peptide 2 hours prior to an LPS challenge, and serum TNFα levels determined 30 min after the LPS challenge, by ELISA. The best performing peptide reduced serum TNFα levels equivalent to those achieved with 1 mg/kg dexamethasone. Next, shortened versions of this peptide were synthesized, tested in the mouse LPS challenge model, and a 17 amino acid peptide, SP16, emerged as a lead development candidate for further characterization. Next, SP16 was tested in a lethal endotoxemia model, which models endotoxemia following acute radiation exposure, where Gram negative bacteria leaking from the gastro-intestinal system can cause lethal endotoxemia.
Mice were injected with 0.5, 0.1, 0.02 and 0.004 mg of each peptide. Mice were also treated with dexamethasone as a positive control and vehicle as a negative control. Two hours later each mouse was injected with LPS. Samples were taken 90 minutes after LPS injection.
To evaluate the effect of different amino acids in the SP16 peptide for the immunomodulating effect, we created an alanine screen. […] The peptides wherein the substitution occurred within amino acids 4-14 of SP16, appeared to maintain and rather improve their capacity to reduce TNF-alpha levels compared to the control Dexamethasone. The LPS mouse model is an established model for sepsis in humans and thus we conclude that peptides wherein the amino acids 1-3 and 15-17 are present, can be effectively used in humans to treat or prevent sepsis in conditions, such as burns or acute radiation, which expose humans to a high risk of developing endotoxemia.

NOD mice = assay: NOD mouse spontaneous autoimmune (type I) diabetes model; assay type: in vivo; conditions: groups of 12 NOD mice, vs scrambled control peptide
Experimental: Groups of 12 animals were injected with SP16, hAAT or scrambled control peptide. Non-fasted blood glucose levels were measured twice a week and animals with two consecutive readings greater than 300 mg/dl were considered diabetic.
NOD (non-obese diabetic) mice spontaneously develop overt, insulin-dependent type I diabetes. The NOD model is recommended by the FDA for preclinical testing of therapeutic agents for type I diabetes. Disease onset typically occurs at 12-14 weeks of age, with peri-insulitis detectable from about 4 weeks of age and developing into severe insulitis at 10 weeks of age. The autoimmune destruction of β-cells is thought to arise from dysregulation of multiple tolerance pathways, leading to islet infiltration with monocytes, predominantly CD4^+ and CD8^+ T cells, and insulitis, with subsequent hypoinsulinemia and hyperglycemia.

TLR-2 = target: T1, TLR-2 (Mus musculus, UniProt Q9QUN7); assay: TLR-2 indicator cell line assay (HEK-Blue mTLR2), secreted alkaline phosphatase; assay type: cell-based; conditions: 20 μg/ml peptide, 24 hours
T1 construct: host or cells: HEK-Blue mTLR2 (HEK293-derived reporter line, SEAP read-out)
Experimental: Graph summarizing representative data from assays with an engineered TLR-2 indicator cell line (HEK-Blue™ mTLR2, Invivogen). Cells were incubated with the indicated concentrations of peptide for 24 hours. Upon TLR2 activation, the cells secrete alkaline phosphatase which can be assayed. The assay was done in triplicate and averages with standard deviations are plotted.
Graph summarizing data from an experiment where an engineered TLR-2 indicator cell line (HEK-Blue™ mTLR2, Invivogen) was used to test the impact of substituting amino acid residues of the SP16 peptide with alanine (“alanine scan”). Cells were incubated with 20 μg/ml of the indicated peptides for 24 hours. Upon TLR2 activation, the cells secrete alkaline phosphatase which can be assayed. The assay was done in triplicate and averages are plotted. Peptide sequences are shown in the following figure. *p<0.05, compared with scrambled control (SP34).
We also performed a peptide optimization assay using an alanine scan with the TLR-2 assay. Data was obtained using an experiment with an engineered TLR-2 indicator cell line (HEK-BLUE™ mTLR2, Invivogen). Cells were incubated with the 20 μg/ml of the indicated peptides for 24 hours. Upon TLR2 activation, the cells secrete alkaline phosphatase, which can be assayed. The assay was done in triplicate and averages are plotted. […]

[1] = test system: 111 in vitro assay targets (human receptors); assay: Human receptor panning, GenSEP Explorer panel
Excerpt: In addition, we also performed a profile using human receptor panning. The GenSEP Explorer panel contains 111 in vitro assay targets carefully selected to assess drug/chemical biological activities. Assay categories include GPCRs, Voltage-Gated Ion Channels, Ligand-Gated Ion Channels, Neurotransmitter transporters, Nuclear Receptors and Steroids as well as a diverse set of biochemical targets including phosphodiesterases, kinases and other relevant enzymes.

hERG = hERG (Homo sapiens, UniProt Q12809); assay type: cell-based
Excerpt: The SP16 safety profile also included hERG data. […] The study was executed by Apredica, Boston, MA.

[2] = Pharmacokinetic profile after intravenous injection, plasma by LC/MS/MS; assay type: in vivo, rats; conditions: IV 5 mg/kg
Experimental: In performing the assay, three normal rats were injected intravenously with 5 mg/kg SP16 and the plasma concentration of SP16 established at 8 time points following the injection. […] The assay was executed by Apredica, Boston, Mass.

Sequence of hERG (Q12809 whole entry): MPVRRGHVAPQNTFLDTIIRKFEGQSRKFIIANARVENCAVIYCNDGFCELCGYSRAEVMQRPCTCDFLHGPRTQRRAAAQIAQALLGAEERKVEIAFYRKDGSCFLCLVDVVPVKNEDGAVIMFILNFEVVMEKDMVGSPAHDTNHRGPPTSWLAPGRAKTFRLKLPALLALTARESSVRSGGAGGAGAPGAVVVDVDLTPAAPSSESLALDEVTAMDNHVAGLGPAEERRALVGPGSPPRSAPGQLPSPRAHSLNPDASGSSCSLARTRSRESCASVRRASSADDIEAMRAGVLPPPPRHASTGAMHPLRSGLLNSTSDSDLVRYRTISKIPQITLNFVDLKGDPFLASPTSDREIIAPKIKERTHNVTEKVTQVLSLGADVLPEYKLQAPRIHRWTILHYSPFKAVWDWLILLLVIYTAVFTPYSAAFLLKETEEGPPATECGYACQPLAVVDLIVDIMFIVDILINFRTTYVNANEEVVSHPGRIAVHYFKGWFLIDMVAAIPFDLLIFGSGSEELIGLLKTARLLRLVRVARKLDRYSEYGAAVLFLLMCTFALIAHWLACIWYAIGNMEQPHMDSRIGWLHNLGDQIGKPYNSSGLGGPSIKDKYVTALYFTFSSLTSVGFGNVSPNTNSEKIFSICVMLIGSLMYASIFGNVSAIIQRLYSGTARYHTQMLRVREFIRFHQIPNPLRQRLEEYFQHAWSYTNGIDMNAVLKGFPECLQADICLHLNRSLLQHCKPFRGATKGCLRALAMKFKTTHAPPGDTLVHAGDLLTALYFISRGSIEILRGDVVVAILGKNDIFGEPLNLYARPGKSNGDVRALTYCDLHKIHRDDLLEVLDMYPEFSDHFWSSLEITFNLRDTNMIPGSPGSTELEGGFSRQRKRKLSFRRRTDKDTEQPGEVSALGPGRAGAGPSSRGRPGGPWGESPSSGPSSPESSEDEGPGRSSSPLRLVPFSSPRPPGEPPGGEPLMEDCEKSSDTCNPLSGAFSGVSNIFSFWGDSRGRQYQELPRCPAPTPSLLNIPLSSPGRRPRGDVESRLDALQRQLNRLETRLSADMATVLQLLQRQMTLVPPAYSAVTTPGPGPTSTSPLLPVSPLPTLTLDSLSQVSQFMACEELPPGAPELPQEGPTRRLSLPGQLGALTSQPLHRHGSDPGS
T1 sequence (Q9QUN7 25-784): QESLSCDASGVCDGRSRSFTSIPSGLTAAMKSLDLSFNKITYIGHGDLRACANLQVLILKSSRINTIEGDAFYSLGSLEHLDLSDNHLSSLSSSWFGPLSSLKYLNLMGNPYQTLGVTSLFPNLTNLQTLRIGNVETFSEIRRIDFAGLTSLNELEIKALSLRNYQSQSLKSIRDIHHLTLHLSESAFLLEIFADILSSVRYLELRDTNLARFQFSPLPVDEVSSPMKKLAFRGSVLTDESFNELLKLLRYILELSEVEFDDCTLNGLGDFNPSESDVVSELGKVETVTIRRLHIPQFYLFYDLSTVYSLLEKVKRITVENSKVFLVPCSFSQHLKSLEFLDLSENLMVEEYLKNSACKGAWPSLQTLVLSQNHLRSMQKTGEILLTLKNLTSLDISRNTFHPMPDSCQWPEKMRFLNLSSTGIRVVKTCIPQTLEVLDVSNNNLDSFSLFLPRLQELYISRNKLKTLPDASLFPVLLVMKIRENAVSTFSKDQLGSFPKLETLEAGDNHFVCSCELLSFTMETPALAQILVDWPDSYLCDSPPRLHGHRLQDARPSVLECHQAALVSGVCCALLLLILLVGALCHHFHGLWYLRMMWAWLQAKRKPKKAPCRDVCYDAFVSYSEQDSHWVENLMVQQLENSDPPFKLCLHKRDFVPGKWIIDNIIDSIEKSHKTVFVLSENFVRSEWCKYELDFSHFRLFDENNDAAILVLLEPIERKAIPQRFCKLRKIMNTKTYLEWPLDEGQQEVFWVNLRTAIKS

For “V K F N K P A A A L M I E Q N T K (VKFNKPAAALMIEQNTK; listed as Homo sapiens) [SP43, alanine scanned SP16 peptide]”, the “anti-inflammatory effect when administered to a mouse model of sepsis (FIG. 10)” value (from here on “anti-inflammatory effect”) (LPS challenged mice) was “particularly good anti-inflammatory effect” and the “TNF-alpha levels in LPS challenged mice, alanine scanned SP16 peptides (FIG. 10B)” value (shortened to “TNF-alpha levels in LPS challenged mice”) (LPS challenged mice) was “reduce TNF-alpha levels more than Dexamethasone”.
For “hAAT: human alpha-1-antitrypsin, parent protein of SP16”, the “incidence / development of diabetes (two consecutive non-fasted glucose readings greater than 300 mg/dl)” value (NOD mice) was “delayed and reduced the incidence of diabetes”.
With “V K F A A A F V F L M I E Q N T K (VKFAAAFVFLMIEQNTK; listed as Homo sapiens) [SP40, alanine scanned SP16 peptide]” the “anti-inflammatory effect” value (LPS challenged mice) was “particularly good anti-inflammatory effect” and the “TNF-alpha levels in LPS challenged mice” value (LPS challenged mice) was “reduce TNF-alpha levels more than Dexamethasone”.
With “A A A N K P F V F L M I E Q N T K (AAANKPFVFLMIEQNTK; listed as Homo sapiens) [SP37, SP16 with residues 1-3 substituted with alanines]” the “impact on TLR-2 signaling, alanine scan, FIG. 12/13” value (TLR-2) was “no impact on TLR2”.
In the case of “V K F N K P F V F L M I A A A T K (VKFNKPFVFLMIAAATK; listed as Homo sapiens) [SP49, alanine scanned SP16 peptide]”, the “anti-inflammatory effect” value (LPS challenged mice) is reported as “particularly good anti-inflammatory effect” and the “TNF-alpha levels in LPS challenged mice” value (LPS challenged mice) is reported as “reduce TNF-alpha levels more than Dexamethasone”.
With `CC[C@H](C)[C@H](NC(=O)[C@H](CCSC)NC(=O)[C@H](CC(C)C)NC(=O)[C@H](Cc1ccccc1)NC(=O)[C@@H](NC(=O)[C@H](Cc1ccccc1)NC(=O)[C@@H]1CCCN1C(=O)[C@H](CCCCN)NC(=O)[C@H](CC(N)=O)NC(=O)[C@H](Cc1ccccc1)NC(=O)[C@H](CCCCN)NC(=O)[C@@H](N)C(C)C)C(C)C)C(=O)N[C@@H](CCC(=O)O)C(=O)N[C@@H](CCC(N)=O)C(=O)N[C@@H](CC(N)=O)C(=O)N[C@H](C(=O)N[C@@H](CCCCN)C(=O)O)[C@@H](C)O` [SP16] the “effect on the whole GenSEP Explorer panel” value ([1]; 111 human receptors) was “not able to identify any hits; also recorded: no effect on 111 human receptors”, the Percent inhibition ([1]; Brain/gut peptides, 15 receptors tested) was “Insignificant” and the Percent inhibition ([1]; Cell-Based, Functional, 1 receptor tested) was “Insignificant”. The Percent inhibition ([1]; Enzymes, 20 receptors tested) was “Insignificant”, the Percent inhibition ([1]; Enzymes, Kinases, 11 receptors tested) was “Insignificant” and the Percent inhibition ([1]; Growth factors & hormones, 2 receptors tested) was “Insignificant”. The Percent inhibition ([1]; Ion Channels, 8 receptors tested) was “Insignificant”, the Percent inhibition ([1]; Neurotransmitter Related, 47 receptors tested) was “Insignificant” and the Percent inhibition ([1]; Second Messengers, 3 receptors tested) was “Insignificant”. For the same compound, the Percent inhibition ([1]; Steroids, 4 receptors tested) was “Insignificant”, the “comment on hERG inhibition” value (hERG; hERG FastPatch, 0.008-25 μM) was “No concentration-dependent” and the IC50 (hERG; hERG FastPatch, test conc 0.008-25 μM (SP16), 0.01-10 μM (Quinidine)) was greater than 25 µM. The “hERG inhibition” value (hERG; up to 25 μM) was “does not impact hERG activity; also recorded: does not inhibit hERG”, the “Last Time point” value ([2]; normal rats) was 8.0 and the t1/2 ([2]; normal rats) was 1.9 h. For the same compound, the Cmax ([2]; three normal rats, plasma) was 2500 ng/mL and the “T1/2 (half-life)” value ([2]; three normal rats, plasma) was 1.9 h.
With “V K F N K P F V F A A A E Q N T K (VKFNKPFVFAAAEQNTK; listed as Homo sapiens) [SP46, alanine scanned SP16 peptide]” the “anti-inflammatory effect” value (LPS challenged mice) was “particularly good anti-inflammatory effect” and the “TNF-alpha levels in LPS challenged mice” value (LPS challenged mice) was “reduce TNF-alpha levels more than Dexamethasone”.
